Measurements reported in US7517884B2 (Kalypsys Inc., priority 1998, dated 2009).

Columns and labels:
Type in all cases: cell-based, murine and human
Conditions in all cases: GAL4-PPAR LBD chimera
[1] = target: T1, PPAR-alpha (UniProt Q07869); assay: PPAR-alpha transactivation assay (GAL4 chimera, luciferase reporter) in CV-1 cells
T1 sequence (Q07869 1-468): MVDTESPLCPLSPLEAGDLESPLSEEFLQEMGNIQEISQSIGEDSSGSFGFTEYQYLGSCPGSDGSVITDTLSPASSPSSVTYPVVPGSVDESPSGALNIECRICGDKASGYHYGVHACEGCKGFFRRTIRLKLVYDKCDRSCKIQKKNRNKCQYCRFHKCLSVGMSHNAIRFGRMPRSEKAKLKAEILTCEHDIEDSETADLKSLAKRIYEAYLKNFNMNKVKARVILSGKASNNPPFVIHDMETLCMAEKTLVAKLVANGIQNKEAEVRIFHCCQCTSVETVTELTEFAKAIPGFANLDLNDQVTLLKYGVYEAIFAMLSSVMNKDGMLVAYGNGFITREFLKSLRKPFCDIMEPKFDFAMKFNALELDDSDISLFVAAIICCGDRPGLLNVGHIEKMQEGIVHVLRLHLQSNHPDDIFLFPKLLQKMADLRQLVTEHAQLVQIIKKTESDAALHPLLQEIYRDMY
Excerpt: (§1) Compounds may be screened for functional potency in transient transfection assays in CV-1 cells for their ability to activate the PPAR subtypes (transactivation assay). A previously established chimeric receptor system was utilized to allow comparison of the relative transcriptional activity of the receptor subtypes on the same synthetic response element and to prevent endogenous receptor activation from complicating the interpretation of results. See, for example, Lehmann, J. M.; Moore, L. B.; Smith-Oliver, T. A; Wilkinson, W. O.; Willson, T. M.; Kliewer, S. A., An antidiabetic thiazolidinedione is a high affinity ligand for peroxisome proliferator-activated receptor […], J. Biol. Chem., 1995, 270, 12953-6. The ligand binding domains for murine and human PPAR-alpha, PPAR-gamma, and PPAR-delta are each fused to the yeast transcription factor GAL4 DNA binding domain. CV-1 cells were transiently transfected with expression vectors for the respective PPAR chimera along with a reporter construct containing four or five copies of the GAL4 DNA binding site driving expression of luciferase. After 8-16 h, the cells are replated into multi-well assay plates and the media is exchanged to phenol-red free DME medium supplemented with 5% delipidated calf serum. 4 hours after replating, cells were treated with either compounds or 1% DMSO for 20-24 hours. Luciferase activity was then assayed with Britelite (Perkin Elmer) following the manufacturer's protocol and measured with either the Perkin Elmer Viewlux or Molecular Devices Acquest (see, for example, Kliewer, S. A., et. al. Cell 1995, 83, 813-819). Rosiglitazone is used as a positive control in the PPARγ assay. Wy-14643 and GW7647 are used as positive controls in the PPARα assay. GW501516 is used as the positive control in the PPARδ assay.
(§2) Compounds of Examples 1-141 were assayed to measure their biological activity with respect to their EC50 values for modulating PPAR-alpha, PPAR-gamma, and PPAR-delta as set forth in Table 1.

[2] = target: T2, PPAR-delta (UniProt Q03181); assay: PPAR-delta transactivation assay (GAL4 chimera, luciferase reporter) in CV-1 cells
T2 sequence (Q03181 1-441): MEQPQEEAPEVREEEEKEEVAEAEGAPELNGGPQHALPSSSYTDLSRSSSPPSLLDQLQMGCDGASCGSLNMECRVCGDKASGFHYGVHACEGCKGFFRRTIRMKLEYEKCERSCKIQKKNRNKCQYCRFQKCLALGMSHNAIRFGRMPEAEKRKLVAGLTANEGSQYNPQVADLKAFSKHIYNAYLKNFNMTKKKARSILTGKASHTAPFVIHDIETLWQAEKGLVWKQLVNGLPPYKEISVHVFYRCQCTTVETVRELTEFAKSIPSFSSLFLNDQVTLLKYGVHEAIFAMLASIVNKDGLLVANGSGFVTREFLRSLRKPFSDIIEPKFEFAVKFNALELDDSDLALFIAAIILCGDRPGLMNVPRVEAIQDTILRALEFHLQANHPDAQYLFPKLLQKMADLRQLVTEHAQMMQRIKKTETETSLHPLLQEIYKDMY
Excerpt: as §1, §2

[3] = target: T3, PPAR-gamma (UniProt P37231); assay: PPAR-gamma transactivation assay (GAL4 chimera, luciferase reporter) in CV-1 cells
T3 sequence (P37231 1-505): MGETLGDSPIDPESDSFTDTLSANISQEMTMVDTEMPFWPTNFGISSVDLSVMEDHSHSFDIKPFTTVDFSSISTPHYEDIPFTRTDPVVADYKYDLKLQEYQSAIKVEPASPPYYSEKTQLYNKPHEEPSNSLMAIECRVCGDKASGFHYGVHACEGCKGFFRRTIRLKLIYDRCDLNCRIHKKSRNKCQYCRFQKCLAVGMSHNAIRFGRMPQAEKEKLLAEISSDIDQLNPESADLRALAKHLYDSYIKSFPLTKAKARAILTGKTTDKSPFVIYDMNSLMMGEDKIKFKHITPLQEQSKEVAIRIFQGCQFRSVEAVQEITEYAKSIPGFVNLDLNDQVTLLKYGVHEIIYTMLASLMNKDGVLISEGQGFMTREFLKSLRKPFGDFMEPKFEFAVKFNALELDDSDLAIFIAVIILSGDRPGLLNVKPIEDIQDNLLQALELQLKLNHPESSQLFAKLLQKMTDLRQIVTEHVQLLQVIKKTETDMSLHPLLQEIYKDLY
Excerpt: as §1, §2

Structure (SMILES) | EC50 [1] | EC50 [2] | EC50 [3]
O=C(O)C1Cc2cccc(S(=O)(=O)N3CCN(c4ccc(OC(F)(F)F)cn4)CC3)c2C1 (stereo not drawn) [Example 89, 4-[4-(5-Trifluoromethoxy-pyridin-2-yl)-piperazine-1-sulfonyl]-indan-2-carboxylic acid] | < 5 µM | < 5 µM | < 5 µM
O=C(O)Cc1csc2ccc(S(=O)(=O)N3CCN(c4ccc(C(F)(F)F)c(F)c4)CC3)cc12 [Example 48, {5-[4-(3-fluoro-4-trifluoromethyl-phenyl)-piperazine-1-sulfonyl]-benzo[b]thiophen-3-yl}-acetic acid] | < 5 µM | < 5 µM | < 5 µM
C[C@@H]1CN(c2ccc(C(F)(F)F)cn2)C[C@H](C)N1S(=O)(=O)c1ccc2c(c1)C(C(=O)O)CC2 (single isomer, unassigned) [Example 75, 6-[cis-2,6-dimethyl-4-(5-trifluoromethylpyridin-2-yl)-piperazine-1-sulfonyl]-indan-1-carboxylic acid] | 5 to 100 µM | < 5 µM | 5 to 100 µM
C[C@H]1CN(S(=O)(=O)c2cccc3c2CC(C(=O)O)C3)[C@@H](C)CN1c1ccc(C(F)(F)F)cn1 (stereo partly drawn) [Example 116, 4-[2S,5S-dimethyl-4-(5-trifluoromethyl-pyridin-2-yl)-piperazine-1-sulfonyl]-indan-2(R,S)-carboxylic acid] | 5 to 100 µM | < 5 µM | 5 to 100 µM
O=C(O)C1Cc2ccc(S(=O)(=O)N3CC=C(c4ccc(C(F)(F)F)cc4)CC3)cc2C1 (stereo not drawn) [Example 17, 5-[4-(4-trifluoromethyl-phenyl)-3,6-dihydro-2H-pyridine-1-sulfonyl]-indan-2-carboxylic acid] | 5 to 100 µM | 5 to 100 µM | 5 to 100 µM
COc1ccc2c(CC(=O)O)csc2c1S(=O)(=O)N1CCN(c2ccc(C(F)(F)F)cn2)CC1 [Example 36, {6-Methoxy-7-[4-(5-trifluoromethyl-pyridin-2-yl)-piperazine-1-sulfonyl]-benzo[b]thiophen-3-yl}-acetic acid] | > 100 µM | > 100 µM | 5 to 100 µM
C[C@@H]1CN(c2ccc(OC(F)(F)F)cn2)C[C@H](C)N1S(=O)(=O)c1cccc2c1CC(C(=O)O)C2 (stereo partly drawn) [Example 99] | 5 to 100 µM | < 5 µM | 5 to 100 µM
C[C@@H]1CN(S(=O)(=O)c2ccc3c(c2)C(C(=O)O)CC3)C[C@H](C)N1c1ccc(C(F)(F)F)cn1 (stereo partly drawn) [Example 65, 6-[cis-3,5-dimethyl-4-(5-trifluoromethyl-pyrdin-2-yl)-piperazine-1-sulfonyl]-indan-1-carboxylic acid] | < 5 µM | < 5 µM | < 5 µM
CC1(C(=O)O)Cc2ccc(S(=O)(=O)N3CCN(c4ccc(C(F)(F)F)cn4)CC3)cc2C1 (stereo not drawn) [Example 13, 2-methyl-5-[4-(5-trifluoromethyl-pyridin-2-yl)-piperazine-1-sulfonyl]-indan-2-carboxylic acid] | 5 to 100 µM | < 5 µM | 5 to 100 µM
C[C@@H]1CN(c2ccc(OC(F)(F)F)cc2)C[C@H](C)N1S(=O)(=O)c1ccc2ccn(CC(=O)O)c2c1 [Example 88, {6-[cis-2,6-Dimethyl-4-(4-trifluoromethoxy-phenyl)-piperazine-1-sulfonyl]-indol-1-yl}-acetic acid] | > 100 µM | < 5 µM | 5 to 100 µM
O=C(O)CC1Cc2cccc(S(=O)(=O)N3CCN(c4ccc(Cl)c(Cl)c4)CC3)c2C1 (stereo not drawn) [Example 4, {4-[4-(3,4-dichlorophenyl)-piperazine-1-sulfonyl]-indan-2-yl}-acetic acid] | > 100 µM | 5 to 100 µM | > 100 µM
C[C@@H]1CN(c2ccc(OC(F)(F)F)cc2)C[C@H](C)N1S(=O)(=O)c1cccc2c1CC(C(N)=O)C2 (stereo partly drawn) [Example 108, 4-[cis-2,6-dimethyl-4-(4-trifluoromethoxy-phenyl)-piperazine-1-sulfonyl]-indan-2-carboxylic acid amide] | 5 to 100 µM | < 5 µM | 5 to 100 µM
O=C(O)C1Cc2cccc(S(=O)(=O)N3C4CCCC3CN(c3ccc(OC(F)(F)F)cc3)C4)c2C1 (stereo not drawn) [Example 117, 4-[3-(4-trifluoromethoxy-phenyl)-3,9-diaza-bicyclo[3.3.1]nonane-9-sulfonyl]-indan-2-carboxylic acid] | 5 to 100 µM | < 5 µM | 5 to 100 µM
CCC1CN(c2ccc(C(F)(F)F)cn2)CCN1S(=O)(=O)c1ccc2c(c1)C(C(=O)O)CC2 (stereo not drawn) [Example 72, 6-[2-ethyl-4-(5-trifluoromethyl-pyridin-2-yl)-piperazine-1-sulfonyl]-indan-1-carboxylic acid] | < 5 µM | < 5 µM | < 5 µM
C[C@@H]1CN(Cc2ccc(OC(F)(F)F)cc2)C[C@H](C)N1S(=O)(=O)c1cccc2c1CC(C(=O)O)C2 (single isomer, unassigned) [Example 141] | > 100 µM | 5 to 100 µM | > 100 µM
C[C@@H]1CN(c2ccc(C(F)(F)F)c(F)c2)C[C@H](C)N1S(=O)(=O)c1cccc2c1CC(C(=O)O)C2 (stereo partly drawn) [Example 83, 4-[4-(3-fluoro-4-trifluoromethyl-phenyl)-cis-2,6-dimethyl-piperazine-1-sulfonyl]-indan-2-carboxylic acid] | 5 to 100 µM | < 5 µM | 5 to 100 µM
CCC1CN(c2ccc(C(F)(F)F)c(F)c2)CCN1S(=O)(=O)c1ccc2c(c1)C(C(=O)O)CC2 (stereo not drawn) [Example 59, 6-[2-Ethyl-4-(3-fluoro-4-trifluoromethyl-phenyl)-piperazine-1-sulfonyl]-indan-1-carboxylic acid] | < 5 µM | < 5 µM | 5 to 100 µM
C[C@@H]1CN(c2cccc(OC(F)(F)F)c2)C[C@H](C)N1S(=O)(=O)c1cccc2c1CC(C(=O)O)C2 (single isomer, unassigned) [Example 130, 4-[cis-2,6-dimethyl-4-(3-trifluoromethoxyphenyl)piperazin-1-ylsulfonyl]-2,3-dihydro-1H-indene-2-carboxylic acid] | > 100 µM | 5 to 100 µM | > 100 µM
C[C@@H]1[C@H](C)N(c2ccc(C(F)(F)F)cn2)CCN1S(=O)(=O)c1ccc2c(c1)C(C(=O)O)CC2 (stereo in doubt) [Example 86, 6-[2,3-Dimethyl-4-(5-trifluoromethyl-pyridin-2-yl)-piperazine-1-sulfonyl]-indan-1-carboxylic acid] | < 5 µM | < 5 µM | < 5 µM
C[C@@H]1CN(c2ccc(Cl)cc2Cl)C[C@H](C)N1S(=O)(=O)c1ccc2c(c1)C(C(=O)O)CC2 (stereo partly drawn) [Example 103, 6-[4-(2,4-dichloro-phenyl)-cis-2,6-dimethyl-piperazine-1-sulfonyl]-indan-1-carboxylic acid] | 5 to 100 µM | < 5 µM | 5 to 100 µM
